Consider 21 compounds from US20060194837A1, “Tetrahydroisoquinoline compounds” (priority 2004, published 2006).

Read-outs that look alike come from different tables or passages of the source.

One test has as its target T1, human SERT (Homo sapiens, UniProt P31645).
T1 construct: expressed in transfected cells; host or cells: HEK293 membranes
The test is described as follows: Human SERT binding (3H-citalopram displacement). Conditions: HEK293 membranes expressing human SERT, rt 1 h. The procedure: Homogenized HEK293 (Human Embryonic Kidney) membranes expressing the human SERT were incubated with ^3H-citalopram (SERT) at rt for 1 h in 50 mM Tris, 120 mM NaCl, 5 mM KCl (pH 7.4). […] The membranes were washed and the radioactivity was counted as above.

The next test concerns the target T2, Rat SERT (Rattus norvegicus, UniProt P31652).
T2 construct: A rat brain without cerebellum (Zivic Laboratories, Inc.—Pittsburgh, Pa.) was homogenized; tissue Zivic Laboratories, Inc; host or cells: rat brain without cerebellum, membranes
The experiment in a line: Rat brain SERT binding ([3H]-citalopram displacement). Conditions: rat brain membranes without cerebellum, 0.6 nM [3H]-citalopram, 60 min at 25° C. The procedure: The supernatant was removed and re-centrifuged at 15,000 rpm for 30 min. […] Membranes were incubated with 0.6 nM [^3H]-Citalopram plus/minus test compounds for 60 min at 25° C. and harvested by rapid filtration over GF/C glass fiber filters (pretreated with 0.3% polyethylenimine) followed by four washes with ice-cold buffer.

In test [1] the target is T3, human H3 receptor (Homo sapiens, UniProt Q9Y5N1).
T3 construct: expressed in transfected cells
T3 sequence (Q9Y5N1 whole entry): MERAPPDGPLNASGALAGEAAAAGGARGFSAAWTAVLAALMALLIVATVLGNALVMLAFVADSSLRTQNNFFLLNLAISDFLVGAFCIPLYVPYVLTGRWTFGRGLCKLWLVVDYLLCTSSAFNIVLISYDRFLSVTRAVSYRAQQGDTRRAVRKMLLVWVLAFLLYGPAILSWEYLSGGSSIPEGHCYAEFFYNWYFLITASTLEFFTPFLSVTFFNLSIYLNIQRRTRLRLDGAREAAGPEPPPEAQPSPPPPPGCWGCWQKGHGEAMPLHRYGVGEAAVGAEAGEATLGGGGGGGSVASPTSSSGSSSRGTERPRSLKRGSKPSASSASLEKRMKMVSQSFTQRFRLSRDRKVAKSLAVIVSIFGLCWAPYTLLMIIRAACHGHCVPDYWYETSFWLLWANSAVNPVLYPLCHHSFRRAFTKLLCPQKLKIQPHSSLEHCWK
The test is described as follows: H3 receptor binding (N-[3H]-α-methylhistamine displacement). Conditions: membranes of SK-N-MC cells expressing cloned human H3 receptor, 0.8 nM N-[3H]-α-methylhistamine, 60 min at 25° C.

For test [2], the target named is T3, human H3 receptor. The test is described as follows: Cyclic AMP accumulation (β-galactosidase reporter, Schild analysis). The conditions noted are these: histamine agonist, forskolin 5 μM, Schild regression of pEC50 values. The class given is cell-based. The procedure: Sublines of SK-N-MC cells were created that expressed a reporter construct and the human H3 receptor. The reporter gene (β-galactosidase) is under the control of multiple cyclic AMP responsive elements. In 96-well plates, histamine was added directly to the cell media followed 5 min later by an addition of forskolin (5 μM final concentration). When appropriate, antagonists were added 10 min prior to agonist addition. After a 6-h incubation at 37° C., the media was aspirated and the cells washed with 200 μL of phosphate-buffered saline followed by a second aspiration. Cells were lysed with 25 μL 0.1× assay buffer (10 mM Na-phosphate, pH 8, 0.2 mM MgSO4, 0.01 mM MnCl2) and incubated at rt for 10 min. […] Color was developed using 25 μL of 1 mg/mL substrate solution (chlorophenolred β-D galactopyranoside; Roche Molecular Biochemicals, Indianapolis, In.).

Where [3] appears, read: pA2, SK-N-MC cells expressing human H3 receptor and CRE-β-galactosidase reporter.
[4] abbreviates: SK-N-MC cells expressing human H3 receptor and CRE-β-galactosidase reporter, read-out: pA2 (converted).

T1 sequence (P31645 whole entry): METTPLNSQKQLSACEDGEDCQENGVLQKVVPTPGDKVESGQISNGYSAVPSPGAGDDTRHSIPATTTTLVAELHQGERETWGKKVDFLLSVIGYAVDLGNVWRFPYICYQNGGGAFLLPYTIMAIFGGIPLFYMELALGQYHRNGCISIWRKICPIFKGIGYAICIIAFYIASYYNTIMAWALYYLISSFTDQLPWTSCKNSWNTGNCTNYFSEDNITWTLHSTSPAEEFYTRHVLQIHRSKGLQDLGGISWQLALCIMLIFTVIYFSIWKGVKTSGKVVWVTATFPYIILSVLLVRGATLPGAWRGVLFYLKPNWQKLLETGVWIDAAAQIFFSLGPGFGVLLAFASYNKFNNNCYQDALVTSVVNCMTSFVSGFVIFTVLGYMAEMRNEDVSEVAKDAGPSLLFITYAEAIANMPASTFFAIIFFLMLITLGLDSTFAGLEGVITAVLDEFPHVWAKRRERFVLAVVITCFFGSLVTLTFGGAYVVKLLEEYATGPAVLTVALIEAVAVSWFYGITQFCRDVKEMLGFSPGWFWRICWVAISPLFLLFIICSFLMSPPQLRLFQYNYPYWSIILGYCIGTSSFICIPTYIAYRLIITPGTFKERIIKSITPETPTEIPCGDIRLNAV
T2 sequence (P31652 whole entry): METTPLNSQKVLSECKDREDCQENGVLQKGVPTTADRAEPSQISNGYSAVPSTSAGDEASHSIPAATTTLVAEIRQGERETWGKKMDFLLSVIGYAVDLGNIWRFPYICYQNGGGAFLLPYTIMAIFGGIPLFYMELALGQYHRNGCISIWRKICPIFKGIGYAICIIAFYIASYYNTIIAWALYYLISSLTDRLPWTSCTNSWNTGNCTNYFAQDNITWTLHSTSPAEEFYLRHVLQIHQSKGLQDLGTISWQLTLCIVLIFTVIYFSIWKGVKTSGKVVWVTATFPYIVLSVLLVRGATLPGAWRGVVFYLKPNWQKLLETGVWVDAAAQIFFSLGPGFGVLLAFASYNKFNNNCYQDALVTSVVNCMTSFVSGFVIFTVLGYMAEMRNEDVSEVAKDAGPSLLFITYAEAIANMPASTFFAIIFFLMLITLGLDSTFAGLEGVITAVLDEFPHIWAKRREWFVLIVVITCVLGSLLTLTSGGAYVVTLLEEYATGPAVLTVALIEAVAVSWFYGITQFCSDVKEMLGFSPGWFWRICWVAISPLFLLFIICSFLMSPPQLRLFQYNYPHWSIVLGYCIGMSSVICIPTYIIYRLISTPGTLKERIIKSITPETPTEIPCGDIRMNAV

`CN1Cc2cc(OCCCN3CCC(F)CC3)ccc2C(c2ccc(OC(F)F)cc2)C1` (stereo not drawn) [Example 50, 4-(4-Difluoromethoxy-phenyl)-7-[3-(4-fluoro-piperidin-1-yl)-propoxy]-2-methyl-1,2,3,4-tetrahydro-isoquinoline]: the Ki (usually a measure of affinity in units of concentration, obtained from inhibition or displacement) at human SERT came out at 3 nM; on Rat SERT (read-out: Rat SERT Ki), 3 nM; at human H3 receptor [1] it was 8 nM. In addition, on human H3 receptor [2] (setting [3]), the Kb was 3.98 nM.

`COc1ccc(C2CN(C)Cc3cc(C#CCCN4CCCCC4)ccc32)cc1` (stereo not drawn) [Example 275, 4-(4-Methoxy-phenyl)-2-methyl-7-(4-piperidin-1-yl-but-1-ynyl)-1,2,3,4-tetrahydro-isoquinoline]: the Ki at human SERT is 4 nM; on Rat SERT (read-out: Rat SERT Ki), 5 nM; at human H3 receptor [1] it was 3 nM. In addition, the Kb at human H3 receptor [2] (setting [4]) is 1.26 nM.

As for `CSc1ccc(C2CN(C)Cc3cc(OCC4CN(C(C)C)C4)ccc32)cc1` (stereo not drawn) [Example 236, 7-(1-Isopropyl-azetidin-3-ylmethoxy)-2-methyl-4-(4-methylsulfanyl-phenyl)-1,2,3,4-tetrahydro-isoquinoline], the Ki at human SERT stood at 9 nM; on Rat SERT (read-out: Rat SERT Ki), 6 nM; at human H3 receptor [1], 10 nM. Further, on human H3 receptor [2] (setting [4]), the Kb was 7.94 nM.

In the case of `CN1Cc2cc(OCCCN3CCOCC3)ccc2C(c2ccc(OC(F)F)cc2)C1` (stereo not drawn) [Example 214, 4-(4-Difluoromethoxy-phenyl)-2-methyl-7-(3-morpholin-4-yl-propoxy)-1,2,3,4-tetrahydro-isoquinoline], the Ki came to 12 nM on human SERT, 3 nM at Rat SERT (read-out: Rat SERT Ki) and 17 nM on human H3 receptor [1]. For the same compound, the Kb on human H3 receptor [2] (setting [4]) was 6.31 nM.

`CCN(CC)CCCOc1ccc2c(c1)CN(C)CC2c1ccc(OC)cc1` (stereo not drawn) [Example 3, Diethyl-{3-[4-(4-methoxy-phenyl)-2-methyl-1,2,3,4-tetrahydro-isoquinolin-7-yloxy]-propyl}-amine]: the Ki at human SERT worked out at 4 nM; at Rat SERT (read-out: Rat SERT Ki), 3 nM; on human H3 receptor [1] it was 0.7 nM. The compound also gave a Kb on human H3 receptor [2] (setting [3]) of 0.398 nM.

For the compound `CCN1Cc2cc(OCCCN3CCC(F)CC3)ccc2C(c2ccc(OC)cc2)C1` (stereo not drawn) [Example 146, 2-Ethyl-7-[3-(4-fluoro-piperidin-1-yl)-propoxy]-4-(4-methoxy-phenyl)-1,2,3,4-tetrahydro-isoquinoline], the figures for the Ki on human SERT, at Rat SERT (read-out: Rat SERT Ki) and at human H3 receptor [1] were 12 nM, 12 nM and 3 nM, respectively. For the same compound, the Kb on human H3 receptor [2] (setting [4]) was 2 nM.

As for `COc1ccc(C2CN(C)Cc3cc(OCCCN4CCOCC4)ccc32)cc1` (stereo not drawn) [Example 9, 4-(4-Methoxy-phenyl)-2-methyl-7-(3-morpholin-4-yl-propoxy)-1,2,3,4-tetrahydro-isoquinoline], the Ki on human SERT was 6 nM; at Rat SERT (read-out: Rat SERT Ki), 5 nM; on human H3 receptor [1] it was 3 nM. Moreover, on human H3 receptor [2] (setting [4]), the Kb is 2.51 nM.

For the compound `COc1ccc(C2CN(C)Cc3cc(OC[C@H]4CN(C(C)C)CCO4)ccc32)cc1` (single isomer, unassigned) [Example 256B, 7-(4-Isopropyl-morpholin-2R-ylmethoxy)-4-(4-methoxy-phenyl)-2-methyl-1,2,3,4-tetrahydro-isoquinoline], the Ki came out at 4 nM on human SERT, 8 nM at Rat SERT (read-out: Rat SERT Ki) and 7 nM at human H3 receptor [1]. Besides, at human H3 receptor [2] (setting [4]), the Kb is 3.98 nM.

On to `CN1Cc2cc(C#CCCN3CCCCC3)ccc2C(c2ccc(F)cc2)C1` (stereo not drawn) [Example 279, 4-(4-Fluoro-phenyl)-2-methyl-7-(4-piperidin-1-yl-but-1-ynyl)-1,2,3,4-tetrahydro-isoquinoline], for which the Ki at human SERT is 98 nM; at Rat SERT (read-out: Rat SERT Ki), 90 nM; at human H3 receptor [1], 6 nM. On human H3 receptor [2] (setting [4]), the Kb is 3.16 nM.

Turning to `COc1cccc(C2CN(C)Cc3cc(OCCCN4CCC(F)CC4)ccc32)c1` (single isomer, unassigned) [Example 45B, 7-[3-(4-Fluoro-piperidin-1-yl)-propoxy]-4-(3-methoxyphenyl)-2-methyl-1,2,3,4-tetrahydro-isoquinoline], the Ki on human SERT turned out to be 6 nM; at Rat SERT (read-out: Rat SERT Ki) it was 5 nM; at human H3 receptor [1], 3 nM. Moreover, the Kb on human H3 receptor [2] (setting [4]) was 0.794 nM.

`COc1ccc(C2CN(C)Cc3cc(OCCCN4CC[C@@H](N(C)C)C4)ccc32)cc1` (stereo in doubt) [Example 10, (1-{3-[4-(4-Methoxy-phenyl)-2-methyl-1,2,3,4-tetrahydro-isoquinolin-7-yloxy]-propyl}-pyrrolidin-3-yl)-dimethyl-amine]: the Ki on human SERT came to 5 nM; on Rat SERT (read-out: Rat SERT Ki), 4 nM; on human H3 receptor [1], 1 nM. For the same compound, at human H3 receptor [2] (setting [4]), the Kb is 3.98 nM.

Consider `CN1Cc2cc(OCCCN3CCC(F)CC3)ccc2C(c2ccc(Cl)c(Cl)c2)C1` (stereo not drawn) [Example 58, 4-(3,4-Dichloro-phenyl)-7-[3-(4-fluoro-piperidin-1-yl)-propoxy]-2-methyl-1,2,3,4-tetrahydro-isoquinoline], for which the results for the Ki on Rat SERT (read-out: Rat SERT Ki) and on human H3 receptor [1] were 8 nM and 9 nM, respectively. Further, at human H3 receptor [2] (setting [4]), the Kb is 31.6 nM.

For the compound `CCCN1CCC(COc2ccc3c(c2)CN(C)CC3c2ccc(OC)cc2)CC1` (stereo not drawn) [Example 85, 4-(4-Methoxy-phenyl)-2-methyl-7-(1-propyl-piperidin-4-ylmethoxy)-1,2,3,4-tetrahydro-isoquinoline], the Ki on Rat SERT (read-out: Rat SERT Ki) came to 7 nM; on human H3 receptor [1], 8 nM. For the same compound, the Kb at human H3 receptor [2] (setting [4]) is 6.31 nM.

In the case of `C(#Cc1ccc2c(c1)CNCC2c1cccnc1)CCN1CCCCC1` (stereo not drawn) [Example 271, 7-(4-Piperidin-1-yl-but-1-ynyl)-4-pyridin-3-yl-1,2,3,4-tetrahydro-isoquinoline], the Ki on human SERT amounted to 3000 nM; at Rat SERT (read-out: Rat SERT Ki), 413 nM; on human H3 receptor [1], 0.7 nM. In addition, the Kb on human H3 receptor [2] (setting [4]) is 0.251 nM.

For the compound `COc1ccc(C2CN(C)Cc3cc(OCCCN4[C@H](C)CC[C@H]4C)ccc32)cc1` (stereo partly drawn) [Example 11, 7-[3-((2R,5R)-trans-Dimethyl-pyrrolidin-1-yl)-propoxy]-4-(4-methoxy-phenyl)-2-methyl-1,2,3,4-tetrahydro-isoquinoline], the Ki on human SERT came to 5 nM; on Rat SERT (read-out: Rat SERT Ki) it was 2 nM; on human H3 receptor [1], 0.6 nM. Moreover, the Kb at human H3 receptor [2] (setting [4]) was 0.398 nM.

Regarding `COc1ccc(C2CN(C)Cc3cc(OCCCN4CCCC(O)C4)ccc32)cc1` (mixture of isomers) [Example 20, 1-{3-[4-(4-Methoxy-phenyl)-2-methyl-1,2,3,4-tetrahydro-isoquinolin-7-yloxy]-propyl}-piperidin-3-ol], the results for the Ki on human SERT, on Rat SERT (read-out: Rat SERT Ki) and on human H3 receptor [1] were 3 nM, 4 nM and 2 nM, respectively. For the same compound, the Kb at human H3 receptor [2] (setting [4]) was 1 nM.

For `COc1ccc(C2CNCc3cc(OCCCN4CCC(F)CC4)ccc32)cc1` (stereo not drawn) [Example 147, 7-[3-(4-Fluoro-piperidin-1-yl)-propoxy]-4-(4-methoxy-phenyl)-1,2,3,4-tetrahydro-isoquinoline], the Ki at Rat SERT (read-out: Rat SERT Ki) stood at 18 nM; on human H3 receptor [1], 9 nM. Besides, on human H3 receptor [2] (setting [4]), the Kb is 10 nM.

For `COc1ccc(C2CN(CCO)Cc3cc(OCCCN4CCCCC4)ccc32)cc1` (stereo not drawn) [Example 71, 2-[4-(4-Methoxy-phenyl)-7-(3-piperidin-1-yl-propoxy)-3,4-dihydro-1H-isoquinolin-2-yl]-ethanol], the Ki at human SERT came out at 31 nM; at Rat SERT (read-out: Rat SERT Ki), 16 nM; on human H3 receptor [1], 1 nM. Further, the Kb at human H3 receptor [2] (setting [4]) was 0.251 nM.

`CSc1ccc(C2CN(C)Cc3cc(OCC4CN(C5CC5)C4)ccc32)cc1` (stereo not drawn) [Example 237, 7-(1-Cyclopropyl-azetidin-3-ylmethoxy)-2-methyl-4-(4-methylsulfanyl-phenyl)-1,2,3,4-tetrahydro-isoquinoline]: the Ki on Rat SERT (read-out: Rat SERT Ki) stood at 3 nM; at human H3 receptor [1], 5 nM. In addition, at human H3 receptor [2] (setting [4]), the Kb is 15.8 nM.

As for `CN1Cc2cc(OCCCN3CCC(F)CC3)ccc2C(c2cc(Cl)ccc2Cl)C1` (stereo not drawn) [Example 55, 4-(2,5-Dichloro-phenyl)-7-[3-(4-fluoro-piperidin-1-yl)-propoxy]-2-methyl-1,2,3,4-tetrahydro-isoquinoline], the Ki on Rat SERT (Rat SERT Ki (nM)) was 209 nM; on human H3 receptor [1], 8 nM. The compound further showed a Kb on human H3 receptor [2] (setting [3]) of 5.01 nM.

In the case of `COc1ccc(C2CNCc3cc(OCCCN4CCCCC4)ccc32)cc1` (stereo not drawn) [Example 69, 4-(4-Methoxy-phenyl)-7-(3-piperidin-1-yl-propoxy)-1,2,3,4-tetrahydro-isoquinoline], the values for the Ki at Rat SERT (read-out: Rat SERT Ki) and at human H3 receptor [1] were 9 nM and 1 nM, respectively. In addition, the Kb on human H3 receptor [2] (setting [4]) was 0.794 nM.
